Usually IC50 stands for the midpoint of a concentration-inhibition curve.

The results in this text go back to ChEMBL document CHEMBL1141809, “Antioxidative phenolic glycosides from sage (Salvia officinalis)” (J Nat Prod, 1999).

Assay [1] concerns Radical scavenging activity. Description: Antioxidant activity assessed as DPPH radical scavenging activity after 0.5 hrs. The assay is classed as functional. On the technique in general: The DPPH test is a chemical assay of radical scavenging.
Assay [2] in a line: Antioxidant activity assessed as trolox equivalent of ABTS radical scavenging activity in aqueous phase by metmyoglobin assay. It counts as functional.

Regarding `O=C(/C=C/c1ccc(O)c(O)c1)O[C@H]1O[C@@H](CO[C@H]2OC[C@@](O)(CO)[C@@H]2O)[C@H](O)[C@@H](O)[C@@H]1O`, the IC50 in assay [1] came out at 19.8 µM. Also, the Activity in assay [2] was found to be 3.86.

With `O=C(/C=C/c1ccc(O)c(O)c1)OC[C@H]1O[C@H](O[C@]2(CO)O[C@H](CO)[C@@H](O)[C@@H]2O)[C@H](O)[C@@H](O)[C@@H]1O`, the IC50 in assay [1] turned out to be 20.1 µM. In addition, in assay [2], the Activity worked out at 3.7.
